Common to all, as to experiment: DTP human tumour cell line panel, 48 h
For experiment [1], the system named is HCC-2998 colon.
In experiment [2] the test system is ACHN renal.
Experiment [3] relates to NCI-H23 lung.
Experiment [4] deals with SK-MEL-5 melanoma.
Experiment [5] has as its system UACC-257 melanoma.
Experiment [6] concerns RPMI-8226 leukemia.
Experiment [7] relates to HOP-92 NSCLC.
Experiment [8] concerns A549 NSCLC.
Experiment [9] deals with HOP-62 NSCLC.

Structures are written as SMILES.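 Briefly, cells in 96-well plates were exposed to five compound concentrations for 48 h, and endpoints were estimated by linear interpolation. At the GI50, growth is halved. TGI marks complete inhibition of growth.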

For `CC(NS(=O)(=O)c1ccc([N+](=O)[O-])cc1)C(=O)O` (stereo not drawn), the TGI in experiment [1], in [2], in experiment [3], in experiment [4], in [5] and in experiment [6] was over 100 µM in each case. Moreover, the TGI in experiment [7] and in experiment [8] was over 100 µM each time.
On to `COc1ccccc1/C=C(\C#N)c1ccccc1`, for which the TGI (usually the concentration giving total growth inhibition) in experiment [9] is over 100 µM; in [1], over 100 µM; in [2] it was over 100 µM; in experiment [3], over 100 µM; in experiment [4], 40.9 µM; in experiment [5], over 100 µM. Moreover, the TGI in [6], in experiment [7] and in experiment [8] was over 100 µM throughout.
As to `C/C(CN1C(=O)c2ccccc2C1=O)=N\NS(=O)(=O)c1ccc(C)cc1`, the concentration for total growth inhibition (TGI) in experiment [9], in experiment [1], in [2], in experiment [3], in experiment [4] and in experiment [5] was over 100 µM throughout. Moreover, the TGI in [6] and in [8] was over 100 µM each time.
For `Cc1ccc(S(=O)(=O)c2c(N)c3nc4ccccc4n3c3nc4ccccc4nc23)cc1`, the TGI in [9], in [1], in experiment [2], in experiment [3], in experiment [4] and in experiment [5] was over 100 µM in each case. Besides, the TGI in experiment [6] and in experiment [8] was over 100 µM each time.
On to `CC1CC[C@]2(C(=O)O)CCC3(COC(=O)/C=C\c4ccc(O)cc4)C(=CCC4[C@@]5(C)CC[C@H](O)C(C)(C)C5CC[C@]43C)[C@@H]2[C@H]1C` (stereo partly drawn), for which the TGI was 33 µM in [1]; 22.5 µM in experiment [2]; 28.5 µM in experiment [3]; 40.7 µM in experiment [4]; 69.6 µM in experiment [5]; over 100 µM in [6]. In [8], this compound came in with a TGI of 26.3 µM.
In the case of `CN(C)c1ccc2c(=O)c3ccccc3oc2n1`, the TGI in experiment [9], in [1], in experiment [2], in experiment [3], in experiment [4] and in experiment [5] was over 100 µM each time. In addition, the TGI in experiment [6], in experiment [7] and in [8] was over 100 µM each time.
For `N#Cc1ccccc1NC(=O)/C(=N\N)C(C(=O)c1ccncc1)C1OC(=O)c2ccccc21` (stereo not drawn), the TGI in [9], in [1], in experiment [2], in [3], in experiment [4] and in experiment [5] was over 100 µM each time. Also, the TGI in experiment [6], in [7] and in [8] was over 100 µM each time.
On to `O=C1[C@@H]2C(c3ccccc3Br)=NO[C@@H]2C(=O)N1c1ccc(Cc2ccc(N3C(=O)[C@H]4C(c5ccccc5Br)=NO[C@H]4C3=O)cc2)cc1`, for which the TGI in [9], in [1], in experiment [2], in [3], in [4] and in experiment [5] was over 100 µM throughout. Further, the TGI in [6], in experiment [7] and in experiment [8] was over 100 µM each time.
As to `C[N+](C)(C)CC1CCCC/C1=N\OC(=O)c1ccccc1` (stereo not drawn), the TGI in experiment [9], in experiment [1], in experiment [2], in [3], in experiment [4] and in experiment [5] was over 100 µM throughout. The TGI in experiment [6], in [7] and in experiment [8] was over 100 µM each time.
Consider `CCOC(=O)Nc1cc2nnc(-c3ccccc3)nc2c(N)n1`, for which the TGI in experiment [9] was 37.6 µM; in [1] it was over 100 µM; in experiment [2], over 100 µM; in experiment [3] it was 64.2 µM; in experiment [4], 35.7 µM; in experiment [5] it was over 100 µM. Also, the values for the TGI in experiment [6], in experiment [7] and in experiment [8] were 74.3 µM, 85.2 µM and 35.1 µM, respectively.
As for `NC1=NC(=O)/C(=C/c2ccccc2[N+](=O)[O-])C(N)=N1`, the TGI in [9], in experiment [1], in [2], in experiment [3], in [4] and in experiment [5] was over 100 µM each time. Further, the TGI in experiment [6], in experiment [7] and in [8] was over 100 µM each time.
Turning to `Cc1ccccc1NC(=O)C(=O)C(C#N)c1ccc(Cl)cc1` (stereo not drawn), the TGI in [9] is over 100 µM; in experiment [1], 75.9 µM; in [2], over 100 µM; in experiment [3], over 100 µM; in [4], over 100 µM; in experiment [5] it was over 100 µM. The TGI in experiment [6] was 48.8 µM; in [7] it was over 100 µM; in experiment [8], over 100 µM.
Regarding `COc1cc(C2c3[nH]c4ccccc4c3C[C@H]3COC(=O)N23)cc(OC)c1OC` (stereo partly drawn), the GI50 in [9], in experiment [1], in [2], in [3], in experiment [4] and in experiment [5] was under 0.01 µM throughout. Besides, the figures for the GI50 in experiment [6], in experiment [7] and in [8] were under 0.01 µM, 0.0184 µM and 0.0233 µM, respectively. For the same compound, the TGI is over 100 µM in experiment [2]; over 100 µM in experiment [5]; under 0.01 µM in experiment [6]; over 100 µM in [7]; over 100 µM in experiment [8].
Consider `CC1CC(C2=CC=CCS2)=Nc2ccccc2S1` (stereo not drawn), for which the TGI in experiment [9], in experiment [1], in experiment [2], in experiment [3], in experiment [4] and in [5] was over 100 µM in each case. Moreover, the TGI in [6], in experiment [7] and in experiment [8] was over 100 µM each time.
For `CN1N=CSC12C(=O)N(c1ccc(Cl)cc1)C(=O)N2c1ccc(Cl)cc1` (stereo not drawn), the TGI worked out at 15.5 µM in experiment [9]; 37.7 µM in [1]; 5.14 µM in [3]; 15.1 µM in [4]; 33.5 µM in experiment [5]; 7.21 µM in experiment [6]. Further, the TGI in experiment [7] is 8.92 µM; in experiment [8] it was over 100 µM.
On to `O=C(Nc1c(O)[nH]c(=S)[nH]c1=O)c1ccccc1F`, for which the TGI in experiment [9], in [2], in experiment [3], in experiment [4], in experiment [5] and in experiment [6] was over 100 µM in each case. For the same compound, the TGI in experiment [7] and in [8] was over 100 µM in each case.
For `Cc1ccc(NC(=O)c2cc3cc(N=Nc4ccc(Br)cc4)ccc3oc2=O)cc1`, the TGI in [1], in experiment [2], in experiment [3], in experiment [4], in experiment [5] and in [6] was over 100 µM each time. The TGI in [7] and in [8] was over 100 µM throughout.
Take `CCOc1ccccc1NC(=O)CC1C(=O)Nc2ccccc2S1=O` (stereo not drawn): the TGI was over 100 µM in [1]; over 100 µM in experiment [2]; over 100 µM in [3]; over 100 µM in [4]; over 100 µM in experiment [5]; 46.1 µM in experiment [6]. For the same compound, the TGI in experiment [7] and in experiment [8] was over 100 µM in each case.
As to `ON/N=C/c1cc2c(cc1Br)OCO2`, the TGI in [9], in [1], in experiment [2], in [3], in experiment [4] and in experiment [5] was over 386 µM throughout. In addition, the TGI in experiment [6], in experiment [7] and in [8] was over 386 µM throughout.
Turning to `Cc1cn(Cc2ccccc2CCO)c(=S)[nH]c1=O`, the TGI in [9], in experiment [2], in [3], in [4], in experiment [5] and in [6] was over 100 µM each time. The TGI in [7] and in [8] was over 100 µM each time.
In the case of `Cc1nc(-c2cccc(Nc3nc(-c4ccc(Cl)cc4)cs3)c2)cs1`, the GI50 (as a rule, the concentration giving 50% growth inhibition) in experiment [9] is 12.3 µM; in [2], 10.1 µM; in experiment [3], 1.27 µM; in [4], 10.5 µM; in experiment [5], 8.76 µM; in experiment [6] it was 21.3 µM. The GI50 in [7] is 17.1 µM; in experiment [8] it was 8.9 µM. Moreover, the TGI was 24.5 µM in experiment [9]; 17.5 µM in experiment [2]; 10.9 µM in experiment [3]; 19.7 µM in experiment [4]; 18.1 µM in experiment [5]; over 50 µM in [6]. Moreover, the TGI in experiment [7] is over 50 µM; in experiment [8], 24.7 µM.
As for `COc1ccc(C2CC(=O)c3c(O)cc(O)cc3O2)cc1O` (stereo not drawn), the TGI in [9], in [1], in experiment [2], in experiment [3], in experiment [4] and in experiment [5] was over 100 µM each time. Further, the TGI in experiment [6] and in experiment [8] was over 100 µM each time.
As to `CC(C)/C=C1\CCC(CN2CCCC2)C1=O` (stereo not drawn), the TGI is over 100 µM in [9]; 34.2 µM in [1]; 32.2 µM in [2]; 33.8 µM in experiment [3]; 33.2 µM in experiment [4]; 33.9 µM in experiment [5]. Moreover, the TGI is 3.5 µM in [6], 36.1 µM in experiment [7] and 20.1 µM in experiment [8].
`CN1C(=O)CC(c2cccc(C3CC(=O)N(C)C3=O)n2)C1=O` (stereo not drawn): the TGI in experiment [9], in [1], in [2], in experiment [3], in experiment [4] and in [5] was over 100 µM each time. In addition, the TGI in experiment [7] and in experiment [8] was over 100 µM in each case.
On to `COc1cc(/C=C/c2ccncc2)cc(OC)c1OC`, for which the TGI in [9], in [2], in experiment [3], in experiment [4], in [5] and in [6] was over 100 µM each time. For the same compound, the TGI in experiment [7] and in experiment [8] was over 100 µM throughout.
In the case of `CC(C)(C)OC1=C(OC(C)(C)C)C(O)(c2ccccc2)C1=O` (stereo not drawn), the TGI in experiment [1], in experiment [2], in [3], in [4], in experiment [6] and in [8] was over 100 µM in each case.
As for `OC1[C@H]([C@H]2CCCC[C@@H]2O)CCC[C@@H]1[C@@H]1CCCC[C@H]1O` (stereo partly drawn), the TGI in experiment [9], in experiment [1], in experiment [2], in [3], in experiment [4] and in [5] was over 100 µM throughout. For the same compound, the TGI in experiment [6], in [7] and in experiment [8] was over 100 µM in each case.
Turning to `O=C(Nc1ccccc1-c1n[nH]c(=S)[nH]c1=O)C(F)(F)F`, the TGI in [9], in [1], in experiment [2], in [3], in [4] and in experiment [7] was over 100 µM in each case. Further, the TGI in experiment [8] was over 100 µM.
`COC(=O)C1=C(c2ccc(OC)c(OC)c2)OC(c2ccc(OC)c(OC)c2)C1` (stereo not drawn): the TGI in [9] was over 100 µM; in [1], over 100 µM; in [2], over 100 µM; in experiment [3] it was over 100 µM; in [4] it was 34.3 µM; in experiment [5], over 100 µM. In addition, the TGI in experiment [6], in experiment [7] and in experiment [8] was over 100 µM each time.
For the compound `CS/C(=N\C(=S)N(C)C)N(c1ccccc1)c1nc(=[N+](C)C)ss1`, the TGI was 52.9 µM in experiment [9]; 28.9 µM in [1]; over 100 µM in experiment [2]; 51.7 µM in experiment [3]; 17.3 µM in experiment [5]; 6.24 µM in experiment [6]. Further, the TGI in experiment [7] was found to be 51.2 µM; in experiment [8], 22.3 µM.

(Values after PubChem BioAssay (NCI).)
